# Laboratory results from the NIST ThermoML archive (doi:10.1016/j.jct.2013.12.022).
# ± gives the expanded uncertainty stated by the source.
# How the values were obtained:
# [1] = 100 kPa, Liquid; for viscosity: Cone and plate viscometry; for mass density: Vibrating tube method
# [2] = wn = mass fraction of the nth substance listed; settings: 100 kPa, Liquid, w1 = 0.8465; for viscosity: Cone and plate viscometry; for mass density: Vibrating tube method
SMILES,viscosity ([1]; 288.15 K) [mPa·s],mass density ([1]; 288.15 K) [kg/m3],viscosity ([1]; 293.15 K) [mPa·s],mass density ([1]; 293.15 K) [kg/m3],viscosity ([1]; 298.15 K) [mPa·s],mass density ([1]; 298.15 K) [kg/m3],viscosity ([1]; 303.15 K) [mPa·s],mass density ([1]; 303.15 K) [kg/m3],viscosity ([1]; 308.15 K) [mPa·s],mass density ([1]; 308.15 K) [kg/m3],viscosity ([1]; 313.15 K) [mPa·s],mass density ([1]; 313.15 K) [kg/m3],viscosity ([1]; 318.15 K) [mPa·s],mass density ([1]; 318.15 K) [kg/m3],viscosity ([1]; 323.15 K) [mPa·s],mass density ([1]; 323.15 K) [kg/m3],viscosity ([1]; 328.15 K) [mPa·s],mass density ([1]; 328.15 K) [kg/m3],viscosity ([1]; 333.15 K) [mPa·s],mass density ([1]; 333.15 K) [kg/m3],further results
CC(CC(C)(C)C)CP(=O)([O-])CC(C)CC(C)(C)C.CCCCCCCCCCCCCC[P+](CCCCCC)(CCCCCC)CCCCCC,1953 ± 180,890.86 ± 4.3,1446.3 ± 130,887.72 ± 4.3,1058.2 ± 91,884.55 ± 4.3,782.72 ± 65,881.54 ± 4.2,587.62 ± 47,878.58 ± 4.2,447.95 ± 34,875.62 ± 4.2,346.95 ± 26,872.67 ± 4.2,272.37 ± 20,869.72 ± 4.1,217.4 ± 15,866.77 ± 4.1,175.07 ± 12,863.87 ± 4.1,mass density ([1]; 338.15 K): 860.99 ± 4.1 kg/m3; mass density ([1]; 343.15 K): 858.1 ± 4 kg/m3; mass density ([1]; 348.15 K): 855.22 ± 4 kg/m3; viscosity ([1]; 353.15 K): 80.99 ± 5.3 mPa·s; mass density ([1]; 353.15 K): 852.33 ± 4 kg/m3; mass density ([1]; 358.15 K): 849.44 ± 4 kg/m3; mass density ([1]; 363.15 K): 846.56 ± 3.9 kg/m3; viscosity ([1]; 373.15 K): 42.79 ± 2.8 mPa·s; viscosity ([1]; 393.15 K): 24.53 ± 1.6 mPa·s; viscosity ([1]; 413.15 K): 15.44 ± 1 mPa·s; viscosity ([1]; 433.15 K): 10.17 ± 0.66 mPa·s
CC(CC(C)(C)C)CP(=O)([O-])CC(C)CC(C)(C)C.CCCCCCCCCCCCCC[P+](CCCCCC)(CCCCCC)CCCCCC + O,–,–,–,–,–,–,–,–,–,–,–,–,–,–,–,–,–,–,–,–,viscosity ([2]; 288.15 K): 286.96 ± 21 mPa·s; mass density ([2]; 288.15 K): 921.09 ± 3.5 kg/m3; viscosity ([2]; 293.15 K): 211.13 ± 15 mPa·s; mass density ([2]; 293.15 K): 917.76 ± 3.5 kg/m3; viscosity ([2]; 298.15 K): 156.74 ± 11 mPa·s; mass density ([2]; 298.15 K): 914.4 ± 3.5 kg/m3; viscosity ([2]; 303.15 K): 119.54 ± 7.9 mPa·s; mass density ([2]; 303.15 K): 911.03 ± 3.5 kg/m3; viscosity ([2]; 308.15 K): 93.22 ± 6.1 mPa·s; mass density ([2]; 308.15 K): 907.66 ± 3.4 kg/m3; viscosity ([2]; 313.15 K): 74.08 ± 4.8 mPa·s; mass density ([2]; 313.15 K): 904.29 ± 3.4 kg/m3; viscosity ([2]; 318.15 K): 60.01 ± 3.8 mPa·s; mass density ([2]; 318.15 K): 900.95 ± 3.4 kg/m3; viscosity ([2]; 323.15 K): 49.03 ± 3.1 mPa·s; mass density ([2]; 323.15 K): 897.66 ± 3.4 kg/m3; viscosity ([2]; 328.15 K): 40.7 ± 2.6 mPa·s; mass density ([2]; 328.15 K): 894.18 ± 3.3 kg/m3; viscosity ([2]; 333.15 K): 34.16 ± 2.2 mPa·s; mass density ([2]; 333.15 K): 890.61 ± 3.3 kg/m3
CCCCCCCCCCCC [dodecane],1.58 ± 0.1,753.43 ± 0.59,1.47 ± 0.09,749.81 ± 0.58,1.35 ± 0.08,746.18 ± 0.58,1.24 ± 0.08,742.55 ± 0.58,1.14 ± 0.07,738.91 ± 0.57,1.06 ± 0.07,735.26 ± 0.57,0.99 ± 0.06,731.61 ± 0.57,0.93 ± 0.06,727.95 ± 0.57,0.87 ± 0.05,724.29 ± 0.56,0.82 ± 0.05,720.61 ± 0.56,–
